Literature values in patent publication US20230255982A1 (priority 2020, published 2023).
Where two headings read alike, the source gives them in different places. Marks after values point to notes of the source that are not given here.

Test system: stage 3-4 CKD patients with diabetic nephropathy
Settings: ASCEND

COc1ccccc1Oc1c(NS(=O)(=O)c2ccc(C)cn2)nc(-c2ccncc2)nc1OC [Avosentan]
Occurrence of CHF (25 mg, N = 455): 5.9%*
Occurrence of ESRD (25 mg, N = 455): 4.4%
Occurrence of CHF (50 mg, N = 478): 6.1%*
Occurrence of ESRD (50 mg, N = 478): 5.0%
